Test results reported in US20200392181A1, “PEPTIDE COMPOSITIONS AND RELATED METHODS” (Allegro Pharmaceuticals, LLC, priority 2017, published 2020).

Tested on: ischemia-induced retinal neovascularization
Assay: Mouse model of retinopathy of prematurity (ROP), ischemia-induced retinal neovascularization
Assay type: in vivo, C57BI/6 mice
Conditions: addition of three parts taurine to one part of the peptide
Experimental: Each test compound was prepared in sterile water for injection, containing 0.08 mg/100 μL of sodium chloride and 0.005 mg/100 μL of trisodium citrate, the concentration of the peptide was at a concentration of 2.0 mg/100 μL and pH=2.7 and dispensed by sterile filtration into sterile vials. The Taurine test compound was obtained from Sigma Aldrich company, which was >99% pure, and prepared the same way as mentioned previously, having a concentration of 3.0 mg/100 μL. […]
To screen the test compounds for activity against ischemia-induced retinal neovascularization, the well-established model of retinopathy of prematurity (ROP) in mice was used. Litters of C57BI/6 mice were placed in 75% oxygen at postnatal day (P) 7, returned to room air at day (P) 12. The Pups were randomly assigned to treatment groups of 4 to 10 animals per group. The pups were treated as follows: Treatment eyes were treated by intravitreal injection of 1.0 microliters of solution containing 20 micrograms of Test Compound.
On post-natal day 17, 5 days after intravitreal injection, the animals were sacrificed, the retinas were flat mounted and the area of neovascularization in each retina was determined by Fluorescein-dextran image analysis. […]

## Glycinyl-Arginyl-Glycinyl-Cysteic(Acid)-Threonyl-Proline [ALG-1001]
  neovascularization suppressing activity on addition of taurine: improves the neovascularization suppressing activity
